Measured values taken from patent publication US8952024B2, “Herbicidal pyrimidone derivatives” (E I du Pont de Nemours and Company, priority 2009, dated 2015).

Experiments:
Test in all cases: Test B pre-/postemergence plant response
Type in all cases: in vivo
[1] = test system: Italian ryegrass (Lolium multiflorum)
Method in brief: (§1)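 Response scores were assigned visually after 13 to 15 days in a greenhouse, comparing treated pots with controls on a 0–100 scale where 100 denotes complete control. Preemergence treatments went onto freshly seeded loam/sand soil; postemergence treatments onto plants 2 to 18 cm tall.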

[2] = test system: Surinam grass (Brachiaria decumbens)
Method in brief: as §1

[3] = test system: bermudagrass (Cynodon dactylon)
Method in brief: as §1

[4] = test system: blackgrass (Alopecurus myosuroides)
Method in brief: as §1

[5] = test system: cocklebur (Xanthium strumarium)
Method in brief: as §1

[6] = test system: corn (Zea mays)
Method in brief: as §1

[7] = test system: downy bromegrass (Bromus tectorum)
Method in brief: as §1

[8] = test system: green foxtail (Setaria viridis)
Method in brief: as §1

[9] = test system: kochia (Kochia scoparia)
Method in brief: as §1

[10] = test system: lambsquarters (Chenopodium album)
Method in brief: as §1

[11] = test system: large crabgrass (Digitaria sanguinalis)
Method in brief: as §1

[12] = test system: pigweed (Amaranthus retroflexus)
Method in brief: as §1

[13] = test system: ragweed (common ragweed, Ambrosia elatior)
Method in brief: as §1

[14] = test system: soybean (Glycine max)
Method in brief: as §1

[15] = test system: velvetleaf (Abutilon theophrasti)
Method in brief: as §1

[16] = test system: wild oat (Avena fatua)
Method in brief: as §1

[17] = test system: yellow nutsedge (Cyperus esculentus)
Method in brief: as §1

[18] = 62 g ai/ha, postemergence, 0 is no effect, 100 is complete control, 13 to 15 days

SMILES: COCCn1c(-c2ccsc2)ncc(C(=O)C2=C(O)CCCC2=O)c1=O [Compound 97, 5-[(2-hydroxy-6-oxo-1-cyclohexen-1-yl)carbonyl]-3-(2-methoxyethyl)-2-(3-thienyl)-4(3H)-pyrimidinone]
- Ryegrass, Italian plant response rating (0 to 100 scale) [1, 18]: 0
- pest or weed control at 31 g/ha ([1]; Lolium multiflorum, post-emergence, 31 g ai/ha, postemergence, scale 0 to 100, 0 is no effect, 100 is complete control, read-out: Plant response rating, Ryegrass, Italian): 0%
- pest or weed control at 250 g/ha ([1]; Lolium multiflorum, post-emergence, Postemergence, 250 g ai/ha, scale 0 to 100 (0 no effect, 100 complete control), read-out: Plant response rating, Ryegrass, Italian): 5%
- Surinam Grass plant response rating (0 to 100 scale) [2, 18]: 75
- pest or weed control at 31 g/ha ([2]; Urochloa decumbens, post-emergence, 31 g ai/ha, postemergence, scale 0 to 100, 0 is no effect, 100 is complete control, read-out: Plant response rating, Surinam Grass): 65%
- pest or weed control at 250 g/ha ([2]; Urochloa decumbens, post-emergence, Postemergence, 250 g ai/ha, scale 0 to 100 (0 no effect, 100 complete control), read-out: Plant response rating, Surinam Grass): 85%
- Bermudagrass plant response rating (0 to 100 scale) [3, 18]: 95
- pest or weed control at 31 g/ha ([3]; Cynodon dactylon, post-emergence, 31 g ai/ha, postemergence, scale 0 to 100, 0 is no effect, 100 is complete control, read-out: Plant response rating, Bermudagrass): 95%
- pest or weed control at 125 g/ha ([3]; Cynodon dactylon, post-emergence, Postemergence, 125 g ai/ha, visual rating after 13 to 15 days, scale 0 (no effect) to 100 (complete control)): 95%
- pest or weed control at 250 g/ha ([3]; Cynodon dactylon, post-emergence, Postemergence, 250 g ai/ha, scale 0 to 100 (0 no effect, 100 complete control), read-out: Plant response rating, Bermudagrass): 98%
- Blackgrass plant response rating (0 to 100 scale) [4, 18]: 20
- pest or weed control at 31 g/ha ([4]; Alopecurus myosuroides, post-emergence, 360 h, 31 g ai/ha, postemergence, scale 0 to 100, 0 is no effect, 100 is complete control, read-out: Plant response rating, Blackgrass): 5%
- pest or weed control at 125 g/ha ([4]; Alopecurus myosuroides, post-emergence, 360 h, Postemergence, 125 g ai/ha, visual rating after 13 to 15 days, scale 0 (no effect) to 100 (complete control)): 30%
- pest or weed control at 250 g/ha ([4]; Alopecurus myosuroides, post-emergence, 360 h, Postemergence, 250 g ai/ha, scale 0 to 100 (0 no effect, 100 complete control), read-out: Plant response rating, Blackgrass): 50%
- Cocklebur plant response rating (0 to 100 scale) [5, 18]: 100
- pest or weed control at 31 g/ha ([5]; Xanthium strumarium, post-emergence, 31 g ai/ha, postemergence, scale 0 to 100, 0 is no effect, 100 is complete control, read-out: Plant response rating, Cocklebur): 95%
- pest or weed control at 125 g/ha ([5]; Xanthium strumarium, post-emergence, Postemergence, 125 g ai/ha, visual rating after 13 to 15 days, scale 0 (no effect) to 100 (complete control)): 100%
- pest or weed control at 250 g/ha ([5]; Xanthium strumarium, post-emergence, Postemergence, 250 g ai/ha, scale 0 to 100 (0 no effect, 100 complete control), read-out: Plant response rating, Cocklebur): 100%
- Corn plant response rating (0 to 100 scale) [6, 18]: 40
- Corn plant response rating (crop injury, 0 = no effect, 100 = complete kill) at 31 g/ha ([6]; Zea mays, post-emergence, 31 g ai/ha, postemergence, scale 0 to 100, 0 is no effect, 100 is complete control): 20%
- Corn plant response rating (crop injury, 0 = no effect, 100 = complete kill) at 125 g/ha ([6]; Zea mays, post-emergence, Postemergence, 125 g ai/ha, visual rating after 13 to 15 days, scale 0 (no effect) to 100 (complete control)): 60%
- Corn plant response rating (crop injury, 0 = no effect, 100 = complete kill) at 250 g/ha ([6]; Zea mays, post-emergence, Postemergence, 250 g ai/ha, scale 0 to 100 (0 no effect, 100 complete control)): 75%
- Bromegrass, Downy plant response rating (0 to 100 scale) [7, 18]: 0
- pest or weed control at 31 g/ha ([7]; Bromus tectorum, post-emergence, 31 g ai/ha, postemergence, scale 0 to 100, 0 is no effect, 100 is complete control, read-out: Plant response rating, Bromegrass, Downy): 0%
- pest or weed control at 125 g/ha ([7]; Bromus tectorum, post-emergence, Postemergence, 125 g ai/ha, visual rating after 13 to 15 days, scale 0 (no effect) to 100 (complete control)): 5%
- pest or weed control at 250 g/ha ([7]; Bromus tectorum, post-emergence, Postemergence, 250 g ai/ha, scale 0 to 100 (0 no effect, 100 complete control), read-out: Plant response rating, Bromegrass, Downy): 10%
- Foxtail, Green plant response rating (0 to 100 scale) [8, 18]: 85
- pest or weed control at 31 g/ha ([8]; Setaria viridis, post-emergence, 31 g ai/ha, postemergence, scale 0 to 100, 0 is no effect, 100 is complete control, read-out: Plant response rating, Foxtail, Green): 40%
- pest or weed control at 250 g/ha ([8]; Setaria viridis, post-emergence, Postemergence, 250 g ai/ha, scale 0 to 100 (0 no effect, 100 complete control), read-out: Plant response rating, Foxtail, Green): 95%
- Kochia plant response rating (0 to 100 scale) [9, 18]: 90
- pest or weed control at 31 g/ha ([9]; Bassia scoparia, post-emergence, 31 g ai/ha, postemergence, scale 0 to 100, 0 is no effect, 100 is complete control, read-out: Plant response rating, Kochia): 65%
- pest or weed control at 250 g/ha ([9]; Bassia scoparia, post-emergence, Postemergence, 250 g ai/ha, scale 0 to 100 (0 no effect, 100 complete control), read-out: Plant response rating, Kochia): 100%
- Lambsquarters plant response rating (0 to 100 scale) [10, 18]: 100
- pest or weed control at 31 g/ha ([10]; Chenopodium album, post-emergence, 31 g ai/ha, postemergence, scale 0 to 100, 0 is no effect, 100 is complete control, read-out: Plant response rating, Lambsquarters): 90%
- pest or weed control at 250 g/ha ([10]; Chenopodium album, post-emergence, Postemergence, 250 g ai/ha, scale 0 to 100 (0 no effect, 100 complete control), read-out: Plant response rating, Lambsquarters): 100%
- Crabgrass, Large plant response rating (0 to 100 scale) [11, 18]: 80
- pest or weed control at 31 g/ha ([11]; Digitaria sanguinalis, post-emergence, 31 g ai/ha, postemergence, scale 0 to 100, 0 is no effect, 100 is complete control, read-out: Plant response rating, Crabgrass, Large): 75%
- pest or weed control at 125 g/ha ([11]; Digitaria sanguinalis, post-emergence, Postemergence, 125 g ai/ha, visual rating after 13 to 15 days, scale 0 (no effect) to 100 (complete control)): 85%
- pest or weed control at 250 g/ha ([11]; Digitaria sanguinalis, post-emergence, Postemergence, 250 g ai/ha, scale 0 to 100 (0 no effect, 100 complete control), read-out: Plant response rating, Crabgrass, Large): 95%
- Pigweed plant response rating (0 to 100 scale) [12, 18]: 100
- pest or weed control at 31 g/ha ([12]; Amaranthus retroflexus, post-emergence, 31 g ai/ha, postemergence, scale 0 to 100, 0 is no effect, 100 is complete control, read-out: Plant response rating, Pigweed): 95%
- pest or weed control at 250 g/ha ([12]; Amaranthus retroflexus, post-emergence, Postemergence, 250 g ai/ha, scale 0 to 100 (0 no effect, 100 complete control), read-out: Plant response rating, Pigweed): 100%
- Ragweed plant response rating (0 to 100 scale) [13, 18]: 98
- pest or weed control at 31 g/ha ([13]; Ambrosia artemisiifolia, post-emergence, 360 h, 31 g ai/ha, postemergence, scale 0 to 100, 0 is no effect, 100 is complete control, read-out: Plant response rating, Ragweed): 85%
- pest or weed control at 250 g/ha ([13]; Ambrosia artemisiifolia, post-emergence, 360 h, Postemergence, 250 g ai/ha, scale 0 to 100 (0 no effect, 100 complete control), read-out: Plant response rating, Ragweed): 100%
- Soybean plant response rating (0 to 100 scale) [14, 18]: 80
- plant injury at 31 g/ha ([14]; Glycine max, post-emergence, 31 g ai/ha, postemergence, scale 0 to 100, 0 is no effect, 100 is complete control, read-out: Plant response rating, Soybean): 70%
- plant injury at 250 g/ha ([14]; Glycine max, post-emergence, Postemergence, 250 g ai/ha, scale 0 to 100 (0 no effect, 100 complete control), read-out: Plant response rating, Soybean): 100%
- Velvetleaf plant response rating (0 to 100 scale) [15, 18]: 100
- pest or weed control at 31 g/ha ([15]; Abutilon theophrasti, post-emergence, 360 h, 31 g ai/ha, postemergence, scale 0 to 100, 0 is no effect, 100 is complete control, read-out: Plant response rating, Velvetleaf): 100%
- pest or weed control at 250 g/ha ([15]; Abutilon theophrasti, post-emergence, 360 h, Postemergence, 250 g ai/ha, scale 0 to 100 (0 no effect, 100 complete control), read-out: Plant response rating, Velvetleaf): 100%
- Oat, Wild plant response rating (0 to 100 scale) [16, 18]: 5
- pest or weed control at 31 g/ha ([16]; Avena fatua, post-emergence, 31 g ai/ha, postemergence, scale 0 to 100, 0 is no effect, 100 is complete control, read-out: Plant response rating, Oat, Wild): 0%
- pest or weed control at 250 g/ha ([16]; Avena fatua, post-emergence, Postemergence, 250 g ai/ha, scale 0 to 100 (0 no effect, 100 complete control), read-out: Plant response rating, Oat, Wild): 10%
- Nutsedge, Yellow plant response rating (0 to 100 scale) [17, 18]: 75
- pest or weed control at 31 g/ha ([17]; Cyperus, post-emergence, 31 g ai/ha, postemergence, scale 0 to 100, 0 is no effect, 100 is complete control, read-out: Plant response rating, Nutsedge, Yellow): 75%
- pest or weed control at 250 g/ha ([17]; Cyperus, post-emergence, Postemergence, 250 g ai/ha, scale 0 to 100 (0 no effect, 100 complete control), read-out: Plant response rating, Nutsedge, Yellow): 80%
